Results on 40 compounds are retold here after the SangsterLogP compilation.

Each structure is given as a SMILES string.

As for `CCOc1ccc(Cc2cnc(N)nc2N)cc1OCC`, the logP worked out at 1.72.

`CCOc1cc(Cc2cnc(N)nc2N)c(Br)cc1OC` yielded a logP of 1.86.

`COc1ccc(Cc2cnc(N)nc2N)cc1C` had a logP of 1.91.

As to `COc1ccc(Cc2cnc(N)nc2N)cc1Nc1ccccc1`, the logP was found to be 2.88.

`COc1cc(Cc2cnc(N)nc2N)ccc1Oc1ccccc1` showed a logP of 2.49.

As to `CCCOc1cc(Cc2cnc(N)nc2N)c(Br)cc1OC`, the logP worked out at 2.31.

Consider `COc1ccc(Cc2cnc(N)nc2N)cc1Br`, for which the logP is 1.88.

With `COc1ccc(Cc2cnc(N)nc2N)cc1`, the logP was 1.34.

`COc1cc(Cc2cnc(N)nc2N)ccc1Cl` came in with a logP of 1.87.

`CN(C)c1ccc(Cc2cnc(N)nc2N)cc1` yielded a logP of 1.82.

For the compound `CCOc1cc(Cc2cnc(N)nc2N)ccc1OC`, the logP came to 1.2.

As for `COc1ccc(Cc2cnc(N)nc2N)cc1Oc1ccccc1`, the logP was 2.12.

The compound `COc1ccc(Br)cc1Cc1cnc(N)nc1N` had a logP of 2.44.

`COc1cc(Cc2cnc(N)nc2N)ccc1N(C)C` returned a logP of 1.87.

On to `CCCOc1cc(Cc2cnc(N)nc2N)ccc1OC`, for which the logP came out at 1.88.

On to `COc1ccc(Cc2cnc(N)nc2N)cc1C(C)C`, for which the logP was found to be 2.79.

The compound `Nc1ncc(Cc2ccccc2)c(N)n1` yielded a logP of 1.54.

As for `CCOc1cc(Cc2cnc(N)nc2N)c(Br)c(OCC)c1OCC`, the logP is 1.81.

In turn, `COc1ccc(Cc2cnc(N)nc2N)cc1I` gave a logP of 2.09.

The compound `CCOc1cc(Cc2cnc(N)nc2N)c(I)c(OCC)c1OCC` registered a logP of 2.9.

In turn, `COc1ccc(Cc2cnc(N)nc2N)cc1N(C)C` had a logP of 1.68.

With `COc1cc(Cc2cnc(N)nc2N)ccc1N`, the logP was found to be 0.49.

`CCCOc1cc(Br)c(Cc2cnc(N)nc2N)cc1OC` displayed a logP of 2.84.

For the compound `COc1ccccc1Cc1cnc(N)nc1N`, the logP is 1.75.

`COc1cc(Cc2cnc(N)nc2N)c(Br)c(OC)c1OC` gave a logP of 1.66.

With `CCCOc1ccc(Cc2cnc(N)nc2N)cc1OC`, the logP was 2.02.

In the case of `CCN(CC)c1cc(Cc2cnc(N)nc2N)ccc1OC`, the logP was 2.43.

With `COc1cc(Cc2cnc(N)nc2N)ccc1OC1CCCC1`, the logP was 2.65.

Compound `CCOc1cc(Cc2cnc(N)nc2N)cc(OCC)c1OCC` displayed a logP of 2.08.

Consider `COc1ccc(Br)c(Cc2cnc(N)nc2N)c1`, for which the logP turned out to be 2.

`COc1ccc(I)cc1Cc1cnc(N)nc1N` had a logP of 2.7.

For `COc1cc(Cc2cnc(N)nc2N)c(Br)cc1Br`, the logP came to 3.17.

`CCOc1ccc(Cc2cnc(N)nc2N)cc1OC` showed a logP of 1.34.

Compound `COc1c(Br)c(Cc2cnc(N)nc2N)c(Br)c(OC)c1OC` returned a logP of 1.73.

In turn, `CCOc1cc(Br)c(Cc2cnc(N)nc2N)cc1OC` returned a logP of 2.18.

Compound `COc1cc(Br)c(Cc2cnc(N)nc2N)cc1OC` registered a logP of 1.64.

Take `COc1ccc(Cc2cnc(N)nc2N)cc1N`: the logP came to 0.76.

`COc1ccc(Cc2cnc(N)nc2N)cc1F` came in with a logP of 1.08.

Turning to `COc1cc(Cc2cnc(N)nc2N)ccc1C(C)C`, the logP amounted to 3.14.

`COc1cc(Cc2cnc(N)nc2N)ccc1Nc1ccccc1` returned a logP of 3.42.
